Assay results as given in patent publication US9138421B2, “Platinum compounds for treating cell proliferative diseases, preparation method and use thereof” (priority 2011, dated 2015).

Columns and labels:
[1] = Acute toxic effect of platinum complex on normal mice (LD50); type: in vivo, Kunming mice; settings: both sexes, Kunming, mouse, in vivo; single intravenous administration in 5% glucose, 14 days observation, Bliss method
Procedure: (§1) Test 1: Acute Toxic Effect of Platinum Complex on Normal Mice
(§2) Embodiment platinum compound was dissolved with 5% glucose solution. […] Mortality and toxicity were observed after administration.

[2] = Solubility in water
[3] = tested on: lung cancer H292 cell line; experiment: In vivo antitumor activity, lung cancer H292 in nude mice; settings: H292, 15 mg/kg, every 2 days, 4 times, end 30 days after inoculation
[4] = tested on: lung cancer Lewis; experiment: MTT cytotoxicity, lung cancer Lewis; type: cell-based; settings: n = 6
Procedure: (§3) The toxic action of Embodiment platinum containing compounds was observed on tumor cells by MTT colorimetric method. Several kinds of tumor cells in exponential growth phase were prepared into single cell suspension, inoculated on 96 pore plat at the density of 4×10^4/hole, cultivated for 24 hours to enable to adhere to wall with 1640 culture medium containing 10% fetal calf serum (complete medium) at 37° C.; the final culture volume was 100 μl. Cell morphology was observed after culture for 24 hours.

[5] = tested on: lung cancer H292; experiment: MTT cytotoxicity, lung cancer H292; type: cell-based; settings: n = 6
Procedure: as §3

[6] = tested on: normal mice; experiment: Acute toxic effect of platinum complex on normal mice (LD50); type: in vivo, Kunming mice; settings: single intravenous administration in 5% glucose, 14 days observation, Bliss method
Procedure: as §1, §2

[7] = tested on: Pulmonary epithelial cell BEAS-2B; experiment: MTT cytotoxicity, pulmonary epithelial cell BEAS-2B; type: cell-based; settings: n = 6
Procedure: as §3

[8] = tested on: colon cancer SW480; experiment: MTT cytotoxicity, colon cancer SW480; type: cell-based; settings: n = 6
Procedure: as §3

[9] = tested on: testis cell ST; experiment: MTT cytotoxicity, testis cell ST; type: cell-based; settings: n = 6
Procedure: as §3

[10] = tested on: gastric cancer MGC803; experiment: MTT cytotoxicity, gastric cancer MGC803; type: cell-based; settings: n = 6
Procedure: as §3

[11] = tested on: breast cancer MCF-7 tumor cell line; experiment: In vivo antitumor activity, breast cancer MCF-7 in nude mice; settings: MCF-7, 15 mg/kg, every 2 days, 4 times, end 30 days after inoculation
[12] = tested on: esophagus cancer ECA109; experiment: MTT cytotoxicity, esophagus cancer ECA109; type: cell-based; settings: n = 6
Procedure: as §3

Compound: CNCCC1C(=O)[O][Pt]([NH2])([NH2])[O]C1=O [compound 1, [2-(2-methylamine ethyl)-malonato].[cis-diamino]platinum (II) phosphate]
- LD50 at 14 days [1]: 722 µmol/kg
- solubility ([2]; water): 221 mg/mL

Compound: CN(C)CCC1C(=O)[O][Pt]([NH2])([NH2])[O]C1=O [compound 2, [2-(2-dimethylamine ethyl)-malonato].[cis-diamine] platinum (II) acetate]
- LD50 at 14 days [1]: 791 µmol/kg
- solubility ([2]; water): 198 mg/mL

Compound: CN(C)CCCC1C(=O)[O][Pt]([NH2])([NH2])[O]C1=O [compound 3, [2-(3-dimethylamine propyl)-malonato].[cis-diamine] platinum (II) phosphate]
- LD50 at 14 days [1]: 824 µmol/kg
- solubility ([2]; water): 164 mg/mL

Compound: NCCCC1C(=O)[O][Pt]([NH2])([NH2])[O]C1=O [compound 4, [2-(3-amino propyl)-malonato].[cis-diamine] platinum (II) phosphate]
- LD50 at 14 days [1]: 802 µmol/kg
- solubility ([2]; water): 176 mg/mL

Compound: CCN(CC)CCC1C(=O)[O][Pt]([NH2])([NH2])[O]C1=O [compound 5, [2-(2-diethylamine ethyl)-malonato].[cis-diamine] platinum (II) phosphate]
- LD50 at 14 days [1]: 853 µmol/kg
- solubility ([2]; water): 187 mg/mL

Compound: CCN(CC)CCCC1C(=O)[O][Pt]([NH2])([NH2])[O]C1=O [compound 6, 2-(3-diethylaminepropyl)-malonic-cis-diamino platinum (II) phosphate]
- LD50 at 14 days [1]: 749 µmol/kg
- solubility ([2]; water): 165 mg/mL

Compound: CN(C)CCC1C(=O)[O][Pt]2([NH]C3CCCCC3[NH]2)[O]C1=O (stereo not drawn) [compound 10, [2-(2-dimethylamino ethyl)-malonato].[cis-(1,2-trans-cyclohexanediamine)] platinum (II)]
- tumor inhibition rate (%) [3]: 55.3 ± 11.21 ^ %
- IC50 [4]: 143 µM
- IC50 [5]: 54 µM
- LD50 value [6]: 0.593 mmol/kg
- IC50 [7]: 220 µM
- IC50 [8]: 94 µM

Compound: CCN(CC)CCC1C(=O)[O][Pt]2([NH]C3CCCCC3[NH]2)[O]C1=O.O=C(O)CC(O)(CC(=O)O)C(=O)O (stereo not drawn) [compound 13, [2-(2-diethylamine ethyl)-malonato].[cis-(1,2-trans-cyclohexamethylenediamine)]platinum (II) citrate]
- tumor inhibition rate (%) [3]: 56.1 ± 9.81 ^ %
- IC50 [4]: 36 µM
- IC50 [5]: 316 µM
- IC50 [7]: 145 µM
- IC50 [8]: 80 µM

Compound: CCN(CC)CCCC1C(=O)[O][Pt]2([NH]C3CCCCC3[NH]2)[O]C1=O.O=P(O)(O)O (stereo not drawn) [compound 14, [2-(3-diethylamine propyl)-malonato].[cis-(1,2-trans-cyclohexamethylenediamine)]platinum (II) phosphate]
- tumor inhibition rate (%) [3]: 39.8 ± 8.51 %
- IC50 [5]: 161 µM
- IC50 [9]: 251 µM
- LD50 value [6]: 0.902 mmol/kg
- IC50 [10]: 213 µM
- IC50 [8]: 78 µM

Compound: CCCN(CCC)CCC1C(=O)[O][Pt]2([NH]C3CCCCC3[NH]2)[O]C1=O.O=P(O)(O)O (stereo not drawn) [compound 15, [2-(2-di-n-propylamine ethyl)-malonato].[cis-(1,2-trans-cyclohexamethylenediamine)]platinum (II) phosphate]
- tumor inhibition rate (%) [3]: 59.0 ± 11.02 ^ %
- IC50 [5]: 651 µM
- IC50 [9]: 12 µM
- LD50 value [6]: 0.469 mmol/kg
- IC50 [10]: 149 µM
- IC50 [8]: 92 µM

Compound: CCN(CC)CCCC1C(=O)[O][Pt]2([NH]C3CCC3[NH]2)[O]C1=O.O=C(O)CCC(=O)O (stereo not drawn) [compound 18, 2-(3-diethylaminepropyl)-malonic.cis-(1,2-trans-aminocyclobutyl) platinum (II) succinate]
- tumor inhibition rate (%) [11]: 45.0 ± 9.87%
- IC50 [5]: 224 µM
- IC50 [9]: 147 µM
- IC50 [10]: 367 µM
- IC50 [8]: 281 µM

Compound: CCN(CC)CCCC1C(=O)[O][Pt]2([NH]C3CC3[NH]2)[O]C1=O.O=P(O)(O)O (stereo not drawn) [compound 19, [2-(3-diethylamine propyl)-malonato].[cis-(1,2-trans-cyclopropyldiamine)]platinum (II) phosphate]
- tumor inhibition rate (%) [11]: 52.6 ± 10.5 %
- IC50 [5]: 62 µM
- IC50 [9]: 251 µM
- LD50 value [6]: 0.802 mmol/kg
- IC50 [10]: 213 µM
- IC50 [12]: 88 µM
- solubility ([2]; in water): 218 mg/mL

Compound: CCN(CC)CCC1C(=O)[O][Pt]2([NH]CCC[NH]2)[O]C1=O.O=P(O)(O)O [compound 21, [2-(2-diethylamine ethyl)-malonato].[cis-1,3-propyldiamine] platinum (II) phosphate]
- tumor inhibition rate (%) [11]: 40.3 ± 9.65%
- IC50 [5]: 205 µM
- IC50 [9]: 16 µM
- LD50 value [6]: 0.716 mmol/kg
- IC50 [10]: 216 µM
- IC50 [12]: 174 µM
- solubility ([2]; in water): 231 mg/mL

Compound: [NH2][Pt]1([NH2])[O]C(=O)C(CCCN2CCCCC2)C(=O)[O]1 [compound 29, [2-(3-(1-piperidyl)-propyl)-malonato].[cis-diamine]platinum (II) phosphate]
- LD50 at 14 days [1]: 784 µmol/kg
- solubility ([2]; water): 159 mg/mL

Compound: [NH2][Pt]1([NH2])[O]C(=O)C(CCCN2CCCC2)C(=O)[O]1 [compound 30, [2-(3-(1-pyrrolidyl)-propyl)-malonato].[cis-diamine] platinum (II) phosphate]
- LD50 at 14 days [1]: 802 µmol/kg
- solubility ([2]; water): 160 mg/mL

Compound: [2-(2-di-n-propylamine ethyl)-malonato].[cis-1,4-butanediamine] platinum (II) phosphate [compound 22]
- tumor inhibition rate (%) [11]: 40.9 ± 8.97%
- IC50 [5]: 102 µM
- IC50 [9]: 302 µM
- LD50 value [6]: 0.882 mmol/kg
- IC50 [10]: 556 µM
- IC50 [12]: 215 µM

Compound: [2-(2-diethylamine ethyl)-malonato].[cis-1,2-(1,2-dihydroxymethyl)-ethyldiamine]platinum (II) phosphate [compound 23]
- tumor inhibition rate (%) [11]: 44.1 ± 15.12%
- IC50 [5]: 84 µM
- IC50 [9]: 147 µM
- LD50 value [6]: 0.702 mmol/kg
- IC50 [10]: 367 µM
- IC50 [12]: 212 µM

Compound: [2-(2-dimethylamine ethyl)-malonato].[cis-1,2-ethylenediamine] platinum (II) tosilate [compound 20]
- tumor inhibition rate (%) [11]: 54.52 ± 10.25 %
- IC50 [5]: 351 µM
- IC50 [9]: 12 µM
- LD50 value [6]: 0.753 mmol/kg
- IC50 [10]: 149 µM
- IC50 [12]: 193 µM

Compound: [2-(2-dimethylamine ethyl)-malonato].[cis-1,3-(2,2-hydroxymethyl)-propane diamine]platinum (II) phosphate [compound 24]
- tumor inhibition rate (%) [11]: 44.8 ± 11.31%
- IC50 [5]: 65 µM
- IC50 [9]: 153 µM
- LD50 value [6]: 0.509 mmol/kg
- IC50 [10]: 217 µM
- IC50 [12]: 125 µM

Compound: [2-(3-di-n-propylamine propyl)-malonato].[cis-(1, 2-trans-cyclohexamethylene diamine)]platinum (II) phosphate [compound 16]
- tumor inhibition rate (%) [3]: 35.2 ± 6.43 %
- IC50 [5]: 402 µM
- IC50 [9]: 16 µM
- LD50 value [6]: 0.524 mmol/kg
- IC50 [10]: 216 µM
- IC50 [8]: 77 µM

Compound: [2-(3-diethylamine propyl)-malonato].[cis-(1,2-trans-diaminocyclopentane)]platinum (II) phosphate [compound 17]
- tumor inhibition rate (%) [11]: 39.8 ± 12.12%
- IC50 [5]: 249 µM
- IC50 [9]: 302 µM
- LD50 value [6]: 0.616 mmol/kg
- IC50 [10]: 556 µM
- IC50 [8]: 205 µM
